In BindingDB's records for doi:10.1021/jm0500875 (Pfizer, 2005):
Where a name gives a salt, the structure may show the parent alone.

How the values were obtained:
Assay in all cases: Enzyme Inhibition Assay
Stromelysin-1 = Stromelysin-1 (Homo sapiens, UniProt P08254)
Experimental: (§1) Inhibitors were assayed against purified hMMP-1, hMMP-2, hMMP-3, hMMP-8, hMMP-9, and hMMP-13 using an enzyme assay based on cleavage of the quenched fluorogenic peptide substrate. The increase in fluorescence due to cleavage of the substrate was measured with a fluorescence microplate reader. The Ki values were calculated by nonlinear regression analysis using the percent inhibition, and Km values of the substrates for each MMP.

Neutrophil collagenase = Neutrophil collagenase (Homo sapiens, UniProt P22894)
Chain of Neutrophil collagenase (P22894 whole entry): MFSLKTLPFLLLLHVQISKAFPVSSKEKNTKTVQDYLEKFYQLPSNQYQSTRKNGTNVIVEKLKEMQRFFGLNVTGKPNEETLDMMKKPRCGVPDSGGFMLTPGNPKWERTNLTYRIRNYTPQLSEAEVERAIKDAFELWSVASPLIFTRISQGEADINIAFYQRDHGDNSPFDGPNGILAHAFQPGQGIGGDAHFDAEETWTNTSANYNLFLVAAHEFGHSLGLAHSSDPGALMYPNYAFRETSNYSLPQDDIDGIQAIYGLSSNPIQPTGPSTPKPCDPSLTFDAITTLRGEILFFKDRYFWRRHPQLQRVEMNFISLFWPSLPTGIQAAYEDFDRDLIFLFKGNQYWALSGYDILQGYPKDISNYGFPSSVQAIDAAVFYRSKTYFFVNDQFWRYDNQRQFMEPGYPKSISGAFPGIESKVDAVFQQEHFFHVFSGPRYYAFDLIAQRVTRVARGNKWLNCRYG
Experimental: as §1

Interstitial collagenase = target: T1, Interstitial collagenase (Homo sapiens, UniProt P03956)
T1 sequence (P03956 whole entry): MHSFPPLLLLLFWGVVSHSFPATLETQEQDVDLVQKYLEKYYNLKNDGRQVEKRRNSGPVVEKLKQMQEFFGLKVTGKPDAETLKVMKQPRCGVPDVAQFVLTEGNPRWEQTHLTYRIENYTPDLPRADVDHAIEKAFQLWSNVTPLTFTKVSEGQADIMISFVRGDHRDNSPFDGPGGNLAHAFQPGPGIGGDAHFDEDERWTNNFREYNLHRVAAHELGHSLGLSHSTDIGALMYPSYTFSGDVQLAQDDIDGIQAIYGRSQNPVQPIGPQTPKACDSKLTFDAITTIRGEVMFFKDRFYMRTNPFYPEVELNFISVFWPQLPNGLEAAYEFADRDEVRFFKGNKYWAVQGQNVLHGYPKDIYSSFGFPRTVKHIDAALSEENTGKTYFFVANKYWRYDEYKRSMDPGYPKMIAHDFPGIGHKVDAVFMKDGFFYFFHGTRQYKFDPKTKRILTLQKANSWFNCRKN
Experimental: as §1

[1] = target: 72 kDa type IV collagenase (Homo sapiens, UniProt P08253)
Chain of 72 kDa type IV collagenase (P08253 whole entry): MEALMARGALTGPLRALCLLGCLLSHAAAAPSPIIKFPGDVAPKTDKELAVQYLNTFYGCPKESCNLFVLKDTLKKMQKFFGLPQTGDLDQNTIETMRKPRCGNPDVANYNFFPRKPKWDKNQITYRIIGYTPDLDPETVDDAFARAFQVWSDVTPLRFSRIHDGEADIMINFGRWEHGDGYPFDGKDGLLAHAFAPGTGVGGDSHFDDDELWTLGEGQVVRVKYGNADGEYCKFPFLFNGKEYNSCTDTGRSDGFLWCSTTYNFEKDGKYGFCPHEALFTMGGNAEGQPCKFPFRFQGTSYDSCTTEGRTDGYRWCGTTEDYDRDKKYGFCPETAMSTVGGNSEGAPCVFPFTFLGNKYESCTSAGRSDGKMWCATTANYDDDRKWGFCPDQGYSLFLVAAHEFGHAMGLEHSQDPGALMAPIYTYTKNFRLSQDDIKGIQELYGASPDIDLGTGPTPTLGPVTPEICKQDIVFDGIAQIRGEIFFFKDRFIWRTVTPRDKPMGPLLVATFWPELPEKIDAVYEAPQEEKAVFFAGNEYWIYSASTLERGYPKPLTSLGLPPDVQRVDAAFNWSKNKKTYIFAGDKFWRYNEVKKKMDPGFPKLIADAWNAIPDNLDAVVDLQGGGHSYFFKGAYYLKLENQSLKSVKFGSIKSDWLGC
Experimental: as §1

[2] = target: Matrix metalloproteinase-9 (Homo sapiens, UniProt P14780)
Chain of Matrix metalloproteinase-9 (P14780 whole entry): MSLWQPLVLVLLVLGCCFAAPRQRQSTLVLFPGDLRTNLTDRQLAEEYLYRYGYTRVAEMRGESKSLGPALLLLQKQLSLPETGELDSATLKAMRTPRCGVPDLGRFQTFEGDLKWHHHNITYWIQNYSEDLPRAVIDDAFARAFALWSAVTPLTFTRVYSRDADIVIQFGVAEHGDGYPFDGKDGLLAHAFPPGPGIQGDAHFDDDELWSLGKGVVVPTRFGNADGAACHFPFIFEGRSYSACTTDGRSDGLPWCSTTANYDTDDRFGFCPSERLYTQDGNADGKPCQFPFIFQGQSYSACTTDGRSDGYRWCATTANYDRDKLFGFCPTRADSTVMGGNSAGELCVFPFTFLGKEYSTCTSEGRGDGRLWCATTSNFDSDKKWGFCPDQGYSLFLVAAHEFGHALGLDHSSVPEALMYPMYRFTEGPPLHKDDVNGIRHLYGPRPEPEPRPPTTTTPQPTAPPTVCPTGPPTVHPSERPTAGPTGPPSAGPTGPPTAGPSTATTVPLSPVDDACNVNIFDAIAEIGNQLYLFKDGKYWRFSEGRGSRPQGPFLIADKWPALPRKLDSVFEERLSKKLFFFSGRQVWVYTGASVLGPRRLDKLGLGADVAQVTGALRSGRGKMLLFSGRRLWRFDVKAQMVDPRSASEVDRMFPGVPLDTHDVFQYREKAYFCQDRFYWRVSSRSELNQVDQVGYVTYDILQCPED
Experimental: as §1

Collagenase 3 = Collagenase 3 (Homo sapiens, UniProt P45452)
Experimental: as §1

Chain of Stromelysin-1 (P08254 whole entry): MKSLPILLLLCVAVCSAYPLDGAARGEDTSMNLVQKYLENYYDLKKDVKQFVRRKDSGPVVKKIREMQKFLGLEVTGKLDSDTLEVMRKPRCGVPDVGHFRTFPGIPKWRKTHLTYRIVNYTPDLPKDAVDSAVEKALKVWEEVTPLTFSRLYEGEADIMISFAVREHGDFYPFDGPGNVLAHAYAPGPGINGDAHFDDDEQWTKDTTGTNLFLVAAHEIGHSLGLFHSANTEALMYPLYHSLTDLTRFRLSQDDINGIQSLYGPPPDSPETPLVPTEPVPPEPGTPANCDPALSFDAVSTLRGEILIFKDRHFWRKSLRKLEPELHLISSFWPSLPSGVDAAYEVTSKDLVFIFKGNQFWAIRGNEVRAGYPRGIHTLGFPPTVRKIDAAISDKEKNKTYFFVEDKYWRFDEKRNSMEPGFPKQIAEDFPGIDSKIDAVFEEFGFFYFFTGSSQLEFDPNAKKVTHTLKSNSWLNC

Ki (Stromelysin-1)	Ki (Neutrophil collagenase)	Ki (Interstitial collagenase; pH 7.5, 25 °C)	Ki [1]	Ki [2]	Ki (Collagenase 3)	Ki (Interstitial collagenase)	SMILES
17.5 nM	1.8 nM	800 nM					O=C(NO)C1(CS(=O)(=O)c2ccc(Oc3ccc(Cl)cc3)cc2)CCOCC1
42.5 nM	3 nM	700 nM	0.3 nM	9 nM			O=C(NO)C1(CS(=O)(=O)c2ccc(Oc3ccccc3)cc2)CCN(CCc2ccccc2)CC1
35 nM		417 nM	0.25 nM	4.5 nM	0.55 nM		C#CCN1CCC(CS(=O)(=O)c2ccc(Oc3ccccc3)cc2)(C(=O)NO)CC1
		770 nM	< 0.1 nM		< 0.1 nM		O=C(NO)C1(S(=O)(=O)c2ccc(Oc3ccccc3)cc2)CCN(CC2CC2)CC1 [1-(Cyclopropylmethyl)-N-hydroxy-4-[(4-phenoxyphenyl)sulfonyl]piperidine-4-carboxamide Hydrochloride]
					< 0.1 nM	464 nM	CC(=O)N1CCC(C(=O)NO)(S(=O)(=O)c2ccc(Oc3ccccc3)cc2)CC1 [1-Acetyl-N-hydroxy-4-{[4-(phenoxyphenyl]sulfonyl}-piperidine-4-carboxamide]
23.5 nM	3.5 nM		0.1 nM	2.5 nM	0.2 nM	> 10000 nM	O=C(NO)C1(S(=O)(=O)c2ccc(Sc3ccccc3)cc2)CCN(C2CC2)CC1 [1-Cyclopropyl-N-hydroxy-4-{[4-(phenylthio)phenyl]-sulfonyl}piperidine-4-carboxamide Hydrochloride]
23 nM	5 nM		0.4 nM	8 nM	0.6 nM	7300 nM	CC(=O)N1CCC(C(=O)NO)(S(=O)(=O)c2ccc(Sc3ccccc3)cc2)CC1 [1-acetyl-N-hydroxy-4-{[4-(phenylsulfanyl)benzene]sulfonyl}piperidine-4-carboxamide]
0.3 nM			0.2 nM	0.6 nM			O=C(NO)C1(S(=O)(=O)c2ccc(Oc3ccccc3)cc2)CCN(C2CC2)CC1 [1-cyclopropyl-N-hydroxy-4-[(4-phenoxybenzene)sulfonyl]piperidine-4-carboxamide hydrochloride]
			0.8 nM		0.8 nM	> 10000 nM	CCN1CCC(C(=O)NO)(S(=O)(=O)c2ccc(Sc3ccccc3)cc2)CC1 [1-ethyl-N-hydroxy-4-{[4-(phenylsulfanyl)benzene]sulfonyl}piperidine-4-carboxamide hydrochloride]
18.1 nM			0.9 nM	7 nM	0.8 nM		C#CCN1CCC(CS(=O)(=O)c2ccc(Oc3ccc(C)c(C)c3)cc2)(C(=O)NO)CC1 [4-({[4-(3,4-Dimethylphenoxy)phenyl]sulfonyl}methyl)-N-hydroxy-1-prop-2-ynylpiperidine-4-carboxamide Hydrochloride]
18.1 nM			< 0.1 nM				O=C(NO)C1(S(=O)(=O)c2ccc(Oc3ccc(Cl)cc3)cc2)CCOCC1 [4-{[4-(4-chlorophenoxy)benzene]sulfonyl}-N-hydroxyoxane-4-carboxamide]
39.3 nM			0.5 nM	9.4 nM	0.68 nM	> 10000 nM	CN1CCC(C(=O)NO)(S(=O)(=O)c2ccc(Sc3ccccc3)cc2)CC1 [N-Hydroxy-1-methyl-4-{[4-(phenylthio)phenyl]sulfonyl}-piperidine-4-carboxamide Hydrochloride]
12.6 nM		274 nM	0.13 nM	0.4 nM	0.22 nM		C#CCN1CCC(C(=O)NO)(S(=O)(=O)c2ccc(Oc3ccccc3)cc2)CC1 [N-Hydroxy-4-{[4-(phenoxyphenyl]sulfonyl}-1-(2-propynyl)4-piperidinecarboxamide, Monohydrochloride]
0.3 nM		350 nM	0.1 nM	0.7 nM	0.1 nM		COCCN1CCC(C(=O)NO)(S(=O)(=O)c2ccc(Oc3ccccc3)cc2)CC1 [N-hydroxy-1-(2-methoxyethyl)-4-[(4-phenoxybenzene)sulfonyl]piperidine-4-carboxamide hydrochloride]
20 nM	4 nM		0.3 nM	3 nM	0.5 nM	> 10000 nM	COCCN1CCC(C(=O)NO)(S(=O)(=O)c2ccc(Sc3ccccc3)cc2)CC1 [N-hydroxy-1-(2-methoxyethyl)-4-{[4-(phenylsulfanyl)benzene]sulfonyl}piperidine-4-carboxamide hydrochloride]
18.1 nM		330 nM	0.2 nM	1.1 nM	0.4 nM		COc1cccc(CN2CCC(CS(=O)(=O)c3ccc(Oc4ccccc4)cc3)(C(=O)NO)CC2)c1 [N-hydroxy-1-[(3-methoxyphenyl)methyl]-4-{[(4-phenoxybenzene)sulfonyl]methyl}piperidine-4-carboxamide hydrochloride]
			0.3 nM	1 nM	0.5 nM	800 nM	CS(=O)(=O)N1CCC(C(=O)NO)(S(=O)(=O)c2ccc(Oc3ccccc3)cc2)CC1 [N-hydroxy-1-methanesulfonyl-4-[(4-phenoxybenzene)sulfonyl]piperidine-4-carboxamide]
32 nM	4 nM		2 nM	14.7 nM	2.6 nM	> 10000 nM	CS(=O)(=O)N1CCC(C(=O)NO)(S(=O)(=O)c2ccc(Sc3ccccc3)cc2)CC1 [N-hydroxy-1-methanesulfonyl-4-{[4-(phenylsulfanyl)benzene]sulfonyl}piperidine-4-carboxamide]
		464 nM	< 0.1 nM	0.29 nM	0.1 nM		CN1CCC(C(=O)NO)(S(=O)(=O)c2ccc(Oc3ccccc3)cc2)CC1 [N-hydroxy-1-methyl-4-[(4-phenoxybenzene)sulfonyl]piperidine-4-carboxamide hydrochloride]
			2.6 nM		5.1 nM	6600 nM	O=C(CS(=O)(=O)c1ccc(Oc2ccccc2)cc1)NO [N-hydroxy-2-[(4-phenoxybenzene)sulfonyl]acetamide]
			0.1 nM		0.25 nM	220 nM	CC(C)(C(=O)NO)S(=O)(=O)c1ccc(Oc2ccccc2)cc1 [N-hydroxy-2-methyl-2-[(4-phenoxybenzene)sulfonyl]propanamide]
59 nM	3.5 nM	1060 nM	0.22 nM	5 nM	0.37 nM		O=C(NO)C1(S(=O)(=O)c2ccc(Oc3ccccc3)cc2)CCNCC1 [N-hydroxy-4-[(4-phenoxybenzene)sulfonyl]piperidine-4-carboxamide]
			0.15 nM		0.3 nM	> 10000 nM	C=CCN1CCC(C(=O)NO)(S(=O)(=O)c2ccc(Sc3ccccc3)cc2)CC1 [N-hydroxy-4-{[4-(phenylsulfanyl)benzene]sulfonyl}-1-(prop-2-en-1-yl)piperidine-4-carboxamide hydrochloride]
13 nM	1.8 nM		0.33 nM			8660 nM	C#CCN1CCC(C(=O)NO)(S(=O)(=O)c2ccc(Sc3ccccc3)cc2)CC1 [N-hydroxy-4-{[4-(phenylsulfanyl)benzene]sulfonyl}-1-(prop-2-yn-1-yl)piperidine-4-carboxamide hydrochloride]
158 nM	2.4 nM	2400 nM	2.8 nM	30 nM	8 nM		O=C(NO)C1(CS(=O)(=O)c2ccc(Oc3ccccc3)cc2)CCNCC1 [N-hydroxy-4-{[(4-phenoxybenzene)sulfonyl]methyl}piperidine-4-carboxamide hydrochloride]
		475 nM	0.2 nM		0.2 nM		CC(C)(C)OC(=O)N1CCC(CS(=O)(=O)c2ccc(Oc3ccccc3)cc2)(C(=O)NO)CC1 [tert-Butyl 4-[(Hydroxyamino)carbonyl]-4-{[(4-phenoxyphenyl)sulfonyl]methyl}piperidine-1-carboxylate]
		1140 nM	0.2 nM		0.3 nM		CC(C)(C)OC(=O)N1CCC(C(=O)NO)(S(=O)(=O)c2ccc(Oc3ccccc3)cc2)CC1 [tert-butyl 4-(hydroxycarbamoyl)-4-[(4-phenoxybenzene)sulfonyl]piperidine-1-carboxylate]
